Reference: EPA's ToxValDB 9.5 (doi:10.2903/j.efsa.2010.1876)
Values after ≈ are worked out from the molar mass of the structure shown. Values joined by “and” are separate entries in the source; they are usually repeats but may differ in a detail not shown here. Equal entries are not always repeated.

Experiments:
Colinus virginianus = conditions: acute; oral; diet; mortality
Anas platyrhynchos = conditions: reproductive
Oncorhynchus mykiss = conditions: chronic/long-term; duration: 28 days; growth
Lepomis macrochirus = conditions: acute; duration: 96 hours; mortality
Coturnix japonica = conditions: acute; oral; mortality
Apis mellifera = conditions: acute; duration: 48 hours; oral; unspecified; mortality
Daphnia magna = conditions: chronic/long-term; duration: 22 days; reproduction
Mus musculus = conditions: acute; oral; mortality
Typhlodromus pyri = assay: LR50; higher = less toxic; conditions: not reported; mortality

Row | Structure (SMILES) | NOAEL (Rattus norvegicus; developmental, development) [mg/kg-day] | LC50 (Colinus virginianus) [mg/kg-day] | NOEC (Anas platyrhynchos) [mg/kg-day] | NOEC (Oncorhynchus mykiss) [mg/L] | LC50 (Lepomis macrochirus) [µg/mL] | LC50 (Tagia sp.; acute, mortality) [mg/kg] | NOEC (Tagia sp.; chronic/long-term, duration: 56 days) [mg/kg] | LD50 (Coturnix japonica) [mg/kg] | LD50 (Apis mellifera) [µg/piece] | NOAEL (Rattus norvegicus; chronic, duration: 2 years, clinical chemistry) [mg/kg-day] | NOEC (Daphnia magna) [mg/L] | LD50 (Mus musculus) [mg/kg] | LR50 (Typhlodromus pyri) [g/ha] | NOAEL (Rattus norvegicus; reproduction developmental)
1 | NC(Cc1ncn[nH]1)C(=O)O (stereo not given) [1,2,4-Triazole-3-alanine] | 100 |  |  |  |  |  |  |  |  |  |  |  |  | 
2 | CC(C)(C)[C@H](O)[C@H](Cc1ccc(Cl)cc1)n1cncn1 (racemic) [Paclobutrazol] | 10 | > 2790 | 119 | 3.3 | 23.6 (≈ 80.3 µM) | > 1000 | 1.69 | > 2100 | > 2 | 2.2 | 0.32 | 490 | > 1000 | 
3 | c1nc[nH]n1 [1H-1,2,4-Triazole] |  |  |  |  |  |  |  |  |  |  |  |  |  | 17 mg/kg-day and 30 mg/kg-day
